Tests used:
[1] = target: T1, Cellular PKMYT1 Biomarker CDK1 pT14 (Homo sapiens, UniProt Q99640); experiment: Inhibition of cellular PKMYT1 biomarker CDK1 pT14 in OVCAR 3 cells (immunoblot); format: cell-based; conditions: 20 hours incubation
T1 construct: read-out CDK1 phospho-T14 immunoblot
T1 sequence (Q99640 1-499): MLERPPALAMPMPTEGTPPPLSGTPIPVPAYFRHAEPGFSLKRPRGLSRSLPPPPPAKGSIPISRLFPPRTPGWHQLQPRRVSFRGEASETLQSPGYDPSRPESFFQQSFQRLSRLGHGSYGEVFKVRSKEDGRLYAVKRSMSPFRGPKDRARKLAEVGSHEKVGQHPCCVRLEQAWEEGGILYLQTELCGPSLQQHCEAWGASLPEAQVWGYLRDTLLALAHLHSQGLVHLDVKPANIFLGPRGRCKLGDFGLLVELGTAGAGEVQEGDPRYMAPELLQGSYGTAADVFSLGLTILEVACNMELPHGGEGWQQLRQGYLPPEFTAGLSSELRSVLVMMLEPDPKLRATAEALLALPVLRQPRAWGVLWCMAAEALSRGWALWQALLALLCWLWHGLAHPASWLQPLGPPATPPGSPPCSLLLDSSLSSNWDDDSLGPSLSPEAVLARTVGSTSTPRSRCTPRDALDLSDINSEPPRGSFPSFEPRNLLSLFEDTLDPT
Description: To determine compound PKMYT1 IC50 in a cellular assay, OVCAR 3 cells were incubated at 37° C. in 5% CO2 atmosphere. The cells were maintained in RPMI medium supplemented with 20% foetal bovine serum, 1X non essential amino acids, 1 mM sodium pyruvate, Glutamax and insulin. Cells were seeded into 12-well plates at low density (50,000-200,000 cells per well), grown to confluence (~350-400,000 cells per well) and then treated with a range of concentrations of PKMYT1 inhibitors. The cells were incubated 20 hours and then harvested into 1X Laemmli Sample Buffer (BIORAD) without 2-mercaptoethanol, heated to 95° C. for 5 min, centrifuged and sonicated using a microprobe for 15 sec, 21W to shear the DNA.
The samples were analysed by immunoblot on a Jess Automated Western Blot System (BioTechne). The samples were separated using the 12-230 kDa Separation Module (BioTechne,) and blotted using an anti-CDK1 phospho T14 antibody (Abcam, #ab58509) and an anti-vinculin antibody (Abcam, #126002). Specific binding was detected by fluorescence using the Anti-Rabbit Detection Module (BioTechne, #DM-001), quantified using Compass for Simple Western software, and IC50 values were calculated by regression analysis in GraphPad Prism.

[2] = target: T2, Human PKMYT1 (Homo sapiens, UniProt Q99640); experiment: PKMYT1 biochemical ADP-Glo enzymatic assay; conditions: ADP-Glo
T2 construct: Human PKMYT1 75-362 was cloned as a TEV cleavable 6xHis fusion; 6xHis (TEV cleavable) (cleaved yes); made in house; host or cells: bacterial cells
T2 sequence (Q99640 75-362): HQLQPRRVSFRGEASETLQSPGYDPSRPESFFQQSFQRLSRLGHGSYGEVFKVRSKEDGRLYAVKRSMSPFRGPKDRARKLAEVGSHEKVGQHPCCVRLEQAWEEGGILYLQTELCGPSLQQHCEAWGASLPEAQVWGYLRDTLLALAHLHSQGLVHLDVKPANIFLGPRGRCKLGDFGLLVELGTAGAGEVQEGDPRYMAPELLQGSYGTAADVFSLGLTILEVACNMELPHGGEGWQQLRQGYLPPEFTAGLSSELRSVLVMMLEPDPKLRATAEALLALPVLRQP
Summary of the method: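 PKMYT1 75-362 (His-cleaved, bacterial) 15 nM; ATP 500 µM; HEPES pH 7.5, MgCl2, EGTA, Brij-35, 1% DMSO; 60 min, 26 °C; ADP-Glo Max luminescence; 10-pt 3-fold titration → IC50; replicates within 3-fold, r2 >0.9.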

[3] = target: T3, WEE1 (Homo sapiens, UniProt P30291); experiment: Selectivity versus WEE1 assay (ADP-Glo enzymatic assay); format: biochemical; conditions: for IC50: ADP-Glo; for PKMYT1 vs. WEE1 selectivity: fold difference in selectivity for PKMYT1 over WEE1
T3 construct: purchased Thermo Fisher PR7373A
Summary of the method: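 15 nM WEE1, 30 µM ATP, 50 mM HEPES pH 7.5, 10 mM MgCl2, 1 mM EGTA, 0.01% Brij-35, 1% DMSO; 60 min, 26° C; ADP-Glo luminescence; IC50 from curve fit, replicates within 3-fold, r2 >0.9.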

[4] = tested on: KYSE-30 cells; experiment: Cancer cell line proliferation assay, ATP-based cell viability (Cell Titre Glow), KYSE-30 (normal CCNE1); conditions: Homo sapiens, KYSE-30 cells (normal CCNE1), concentration that achieves 50% cell growth proliferation inhibition, read-out: KYSE30 Gl50
Summary of the method: (§1)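 Luminescence read-out from an ATP-based viability reagent served as the proliferation measure. Values are GI50 estimates, i.e. concentrations producing 50% inhibition of cell growth.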

[5] = tested on: OVCAR 3 cells; experiment: Cancer cell line proliferation assay, ATP-based cell viability (Cell Titre Glow), OVCAR 3 (CCNE1-amplified); conditions: KYSE30 (normal CCNE1) GI50 vs. OVCAR 3 (CCNE1-amplified) GI50
Summary of the method: as §1

[6] = PKMYT1 kinase domain 15 nM, banded values

T3 sequence (P30291 whole entry): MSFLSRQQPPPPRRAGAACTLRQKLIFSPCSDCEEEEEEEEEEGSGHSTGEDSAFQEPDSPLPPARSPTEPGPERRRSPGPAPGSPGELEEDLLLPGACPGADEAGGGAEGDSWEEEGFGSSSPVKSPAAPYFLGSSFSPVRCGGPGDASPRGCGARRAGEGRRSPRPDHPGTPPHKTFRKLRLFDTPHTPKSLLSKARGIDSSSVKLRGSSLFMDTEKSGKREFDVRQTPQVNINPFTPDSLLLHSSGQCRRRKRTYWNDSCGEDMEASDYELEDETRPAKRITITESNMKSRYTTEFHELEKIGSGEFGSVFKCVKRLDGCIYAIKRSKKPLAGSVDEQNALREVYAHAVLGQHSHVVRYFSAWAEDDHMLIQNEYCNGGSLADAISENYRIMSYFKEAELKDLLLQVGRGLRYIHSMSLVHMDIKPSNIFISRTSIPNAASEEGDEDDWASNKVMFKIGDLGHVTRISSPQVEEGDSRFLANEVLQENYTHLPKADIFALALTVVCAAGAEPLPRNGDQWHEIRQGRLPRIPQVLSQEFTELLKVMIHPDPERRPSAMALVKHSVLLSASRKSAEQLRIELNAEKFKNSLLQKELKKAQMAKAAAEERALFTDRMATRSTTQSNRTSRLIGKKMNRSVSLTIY

IC50 [1] [nM] | IC50 ([2]; 15 nM PKMYT1 kinase domain, 500 µM ATP, 60 minutes at 26° C., banded) [nM] | IC50 ([3]; 15 nM WEE1, 60 minutes at 26° C., banded) [nM] | PKMYT1 vs. WEE1 selectivity ([3]; banded, ">N" = at least in this band but could be higher) | IC50 [2, 6] [nM] | IC50 ([3]; WEE1 15 nM, banded values) [nM] | PKMYT1 vs. WEE1 selectivity ([3]; banded) | SMILES | GI50 [4] [nM] | Selectivity ratio KYSE30 Gl50 vs. OVCAR3 Gl50 [5]
100 to 1000 | 50 to 1000 | > 11000 | Y (1000-5000 fold) | – | – | – | Cc1cc(Nc2ncc(C(=O)Nc3c(C)ccc(O)c3C)s2)n(C2CCCC2)n1 [BAA-231, 2-((1-cyclopentyl-3-methyl-1H-pyrazol-5-yl)amino)-N-(3-hydroxy-2,6-dimethylphenyl)thiazole-5-carboxamide] | – | –
< 100 | – | – | – | < 50 | 1000 to 11000 | X (100-<1000 fold) | Cc1ccc(O)c(C)c1NC(=O)c1cnc(Nc2cccc(F)n2)s1 [BAA-406, 2-((6-fluoropyridin-2-yl)amino)-N-(3-hydroxy-2,6-dimethylphenyl)thiazole-5-carboxamide] | – | –
100 to 1000 | – | – | – | < 50 | > 11000 | Y (1000-5000 fold) | Cc1ccc(O)c(C)c1NC(=O)c1cnc(Nc2ncccc2F)s1 [BAA-411, 2-((3-fluoropyridin-2-yl)amino)-N-(3-hydroxy-2,6-dimethylphenyl)thiazole-5-carboxamide] | – | –
100 to 1000 | – | – | – | < 50 | > 11000 | Z (>5000 fold) | Cc1ccc(O)c(C)c1NC(=O)c1cnc(Nc2ncccc2C2CC2)s1 [BAA-412, 2-((3-cyclopropylpyridin-2-yl)amino)-N-(3-hydroxy-2,6-dimethylphenyl)thiazole-5-carboxamide] | – | –
100 to 1000 | – | – | – | < 50 | > 11000 | Z (>5000 fold) | Cc1ccc(O)c(C)c1NC(=O)c1cnc(Nc2ncc(F)cc2F)s1 [BAA-413, 2-((3,5-difluoropyridin-2-yl)amino)-N-(3-hydroxy-2,6-dimethylphenyl)thiazole-5-carboxamide] | – | –
< 100 | – | – | – | < 50 | > 11000 | X (100-<1000 fold) | Cc1cccnc1Nc1ncc(C(=O)Nc2c(C)ccc(O)c2C)s1 [BAA-415, N-(3-hydroxy-2,6-dimethylphenyl)-2-((3-methylpyridin-2-yl)amino)thiazole-5-carboxamide] | – | –
< 100 | – | – | – | 50 to 1000 | > 11000 | X (100-<1000 fold) | Cc1ccc(O)c(C)c1NC(=O)c1cnc(Nc2nn(C)c3ccc(C(F)(F)F)cc23)s1 [BAA-454, N-(3-hydroxy-2,6-dimethylphenyl)-2-((1-methyl-5-(trifluoromethyl)-1H-indazol-3-yl)amino)thiazole-5-carboxamide] | – | –
100 to 1000 | – | – | – | < 50 | > 11000 | Y (1000-5000 fold) | Cc1cn(CC(F)F)nc1Nc1nnc(C(=O)Nc2c(C)ccc(O)c2C)s1 [BAA-464, 5-((1-(2,2-Difluoroethyl)-4-methyl-1H-pyrazol-3-yl)amino)-N-(3-hydroxy-2,6-dimethylphenyl)-1,3,4-thiadiazole-2-carboxamide] | – | –
< 100 | – | – | – | < 50 | 50 to 1000 | W (10-<100 fold) | Cc1cn(CC#N)nc1Nc1ncc(C(=O)Nc2c(C)ccc(O)c2C)s1 [BAA-467, 2-((1-(cyanomethyl)-4-methyl-1H-pyrazol-3-yl)amino)-N-(3-hydroxy-2,6-dimethylphenyl)thiazole-5-carboxamide] | – | –
100 to 1000 | – | – | – | 50 to 1000 | > 11000 | X (100-<1000 fold) | Cn1cc(Br)c(Nc2ncc(C(=O)Nc3c(Cl)ccc(O)c3F)s2)n1 [BAA-471, 2-((4-Bromo-1-methyl-1H-pyrazol-3-yl)amino)-N-(6-chloro-2-fluoro-3-hydroxyphenyl)thiazole-5-carboxamide] | – | –
100 to 1000 | – | – | – | < 50 | 1000 to 11000 | X (100-<1000 fold) | Cc1ccc(O)c(C)c1NC(=O)c1cnc(Nc2nn(C)cc2Br)s1 [BAA-473, 2-((4-bromo-1-methyl-1H-pyrazol-3-yl)amino)-N-(3-hydroxy-2,6-dimethylphenyl)thiazole-5-carboxamide] | – | –
– | – | – | – | < 50 | > 11000 | Y (1000-5000 fold) | CCN(CC)C(=O)C(C)n1ccc(Nc2ncc(C(=O)Nc3c(C)ccc(O)c3C)s2)n1 (stereo not drawn) [BAA-512, 2-((1-(1-(diethylamino)-1-oxopropan-2-yl)-1H-pyrazol-3-yl)amino)-N-(3-hydroxy-2,6-dimethylphenyl)thiazole-5-carboxamide] | > 5000 | Y (>20 fold)
100 to 1000 | – | – | – | < 50 | 1000 to 11000 | X (100-<1000 fold) | Cc1cn(CC(=O)N(C)CCC#N)nc1Nc1ncc(C(=O)Nc2c(C)ccc(O)c2C)s1 [BAA-523, 2-((1-(2-((2-cyanoethyl)(methyl)amino)-2-oxo-ethyl)-4-methyl-1H-pyrazol-3-yl)amino)-N-(3-hydroxy-2,6-dimethylphenyl)thiazole-5-carboxamide] | – | –
– | – | – | – | < 50 | 1000 to 11000 | X (100-<1000 fold) | Cc1ccc(O)c(C)c1NC(=O)c1cnc(Nc2nn(C)cc2Cl)s1 [BAA-541, 2-((4-chloro-1-methyl-1H-pyrazol-3-yl)amino)-N-(3-hydroxy-2,6-dimethylphenyl)thiazole-5-carboxamide] | > 5000 | Y (>20 fold)
< 100 | – | – | – | < 50 | > 11000 | X (100-<1000 fold) | COCCN(C)C(=O)Cn1cc(C)c(Nc2ncc(C(=O)Nc3c(C)ccc(O)c3C)s2)n1 [BAA-549, N-(3-Hydroxy-2,6-dimethylphenyl)-2-((1-(2-((2-methoxyethyl)(methyl)amino)-2-oxoethyl)-4-methyl-1H-pyrazol-3-yl)amino)thiazole-5-carboxamide] | – | –
– | – | – | – | < 50 | 1000 to 11000 | W (10-<100 fold) | Cc1ccc(O)c(C)c1NC(=O)c1cnc(Nc2nn(CCBr)cc2Cl)s1 [BAA-574, 2-((1-(2-Bromoethyl)-4-chloro-1H-pyrazol-3-yl)amino)-N-(3-hydroxy-2,6-dimethylphenyl)thiazole-5-carboxamide] | 500 to 5000 | X (3-20 fold)
– | – | – | – | < 50 | 1000 to 11000 | X (100-<1000 fold) | COC[C@@H]1CCCN1C(=O)Cn1cc(C)c(Nc2ncc(C(=O)Nc3c(C)ccc(O)c3C)s2)n1 [BAA-606, (S)-N-(3-hydroxy-2,6-dimethylphenyl)-2-((1-(2-(2-(methoxymethyl)pyrrolidin-1-yl)-2-oxoethyl)-4-methyl-1H-pyrazol-3-yl)amino)thiazole-5-carboxamide] | 500 to 5000 | Y (>20 fold)

Source: patent US20260297042A1, “BIARYLAMIDE DERIVATIVES AND THEIR USE AS PKMYT1 INHIBITORS” (CANCER RESEARCH TECHNOLOGY LIMITED, priority 2023, published 2026)
